Laboratory results published in ChEMBL document CHEMBL1147500, “A prodrug approach to COX-2 inhibitors with methylsulfone” (Bioorg Med Chem Lett, 2004).
Values belong to the compound of their own block, whether it stands above or below them.

Columns and labels:
Rattus norvegicus [1] = assay: Inhibition of adjuvant-induced arthritis (AA) in SD rats upon peroral administration (BID) at 0.3 mg/kg/day; format: functional; details: route oral
Rattus norvegicus [2] = assay: Inhibition of adjuvant-induced arthritis (AA) in SD rats upon peroral administration (BID) at 0.1 mg/kg/day; format: functional; details: route oral
Rattus norvegicus [3] = assay: Effective dose against adjuvant-induced arthritis (AA) in male lewis rats upon peroral administration (bid); format: functional; details: po
[4] = Area under curve (0-24 hr) at a dose of 10 mg/kg in male SD rats; format: ADME, organism-based; set-up: time < 24 hr, dose 10 mg/kg; details: rat, in vivo
[5] = Tmax value at a dose of 10 mg/kg in male SD rats; format: ADME, organism-based; set-up: dose 10 mg/kg; details: rat, in vivo
[6] = Cmax value at a dose of 10 mg/kg in male SD rats; format: ADME, organism-based; set-up: dose 10 mg/kg; details: rat, in vivo
Rattus norvegicus [7] = assay: Effective dose against adjuvant-induced arthritis (AA) in SD rats upon peroral administration (QD); format: functional; details: po
[8] = Cmax upon oral administration in male Beagle dog at 10 mg/kg; format: ADME, organism-based, Canis lupus familiaris; set-up: dose 10 mg/kg, route oral; details: in vivo
[9] = Cmax value at a dose of 100 mg/kg in male SD rats; format: ADME, organism-based; set-up: dose 100 mg/kg; details: rat, in vivo
[10] = target: T1, Prostaglandin G/H synthase 1 (Mus musculus, UniProt P22437); assay: Inhibitory concentration against prostaglandin G/H synthase 1 in mouse peritoneal macrophages
T1 sequence (P22437 whole entry): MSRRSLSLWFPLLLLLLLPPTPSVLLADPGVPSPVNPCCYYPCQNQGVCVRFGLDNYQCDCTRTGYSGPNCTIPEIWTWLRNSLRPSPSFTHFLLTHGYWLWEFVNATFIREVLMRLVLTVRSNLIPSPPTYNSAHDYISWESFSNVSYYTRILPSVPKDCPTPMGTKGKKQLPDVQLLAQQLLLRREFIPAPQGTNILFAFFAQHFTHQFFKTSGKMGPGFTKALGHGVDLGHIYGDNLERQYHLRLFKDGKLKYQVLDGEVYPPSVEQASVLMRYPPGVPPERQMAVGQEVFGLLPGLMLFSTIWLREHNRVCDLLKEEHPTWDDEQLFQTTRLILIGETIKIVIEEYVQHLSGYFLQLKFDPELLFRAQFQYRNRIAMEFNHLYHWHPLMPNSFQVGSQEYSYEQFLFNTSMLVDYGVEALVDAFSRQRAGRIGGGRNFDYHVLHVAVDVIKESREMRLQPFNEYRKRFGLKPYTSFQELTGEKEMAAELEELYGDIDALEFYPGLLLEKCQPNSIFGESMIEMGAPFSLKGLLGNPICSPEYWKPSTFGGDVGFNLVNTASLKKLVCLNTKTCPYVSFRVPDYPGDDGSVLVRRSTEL

[11] = Tmax value at a dose of 100 mg/kg in male SD rats; format: ADME, organism-based; set-up: dose 100 mg/kg; details: rat, in vivo
[12] = Tmax value at a dose of 50 mg/kg in male SD rats; format: ADME, organism-based; set-up: dose 50 mg/kg; details: rat, in vivo
[13] = Cmax value at a dose of 50 mg/kg in male SD rats; format: ADME, organism-based; set-up: dose 50 mg/kg; details: rat, in vivo
[14] = Area under curve (0-24 hr) at a dose of 50 mg/kg in male SD rats; format: ADME, organism-based; set-up: time < 24 hr, dose 50 mg/kg; details: rat, in vivo
[15] = target: T2, Prostaglandin G/H synthase 2 (Mus musculus, UniProt Q05769); assay: Inhibitory concentration against prostaglandin G/H synthase 2 in mouse peritoneal macrophages
T2 sequence (Q05769 whole entry): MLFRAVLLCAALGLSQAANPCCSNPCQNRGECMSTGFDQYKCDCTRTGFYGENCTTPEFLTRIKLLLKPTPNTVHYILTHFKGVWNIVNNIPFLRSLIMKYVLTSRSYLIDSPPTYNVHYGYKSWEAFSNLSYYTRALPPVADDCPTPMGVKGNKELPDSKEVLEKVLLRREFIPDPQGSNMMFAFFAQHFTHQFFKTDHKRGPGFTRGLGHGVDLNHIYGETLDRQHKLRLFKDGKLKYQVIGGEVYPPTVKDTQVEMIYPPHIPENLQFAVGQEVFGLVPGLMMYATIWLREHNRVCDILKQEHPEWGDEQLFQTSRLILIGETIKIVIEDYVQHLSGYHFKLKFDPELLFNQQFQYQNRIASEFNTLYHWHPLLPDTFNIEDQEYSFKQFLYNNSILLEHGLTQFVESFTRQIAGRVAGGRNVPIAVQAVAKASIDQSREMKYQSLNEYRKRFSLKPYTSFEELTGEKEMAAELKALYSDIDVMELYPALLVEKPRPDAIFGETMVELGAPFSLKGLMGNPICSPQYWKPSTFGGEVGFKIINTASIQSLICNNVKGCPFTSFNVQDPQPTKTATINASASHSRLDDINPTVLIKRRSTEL

[16] = Area under curve (0-24 hr) at a dose of 100 mg/kg in male SD rats; format: ADME, organism-based; set-up: time < 24 hr, dose 100 mg/kg; details: rat, in vivo

Compound: C[S+]([O-])c1ccc(C2=C(c3cc(F)cc(F)c3)C(=O)C(C)(C)O2)cc1 (stereo not drawn)
inhibition in vivo at 0.3 mg/kg/day (Rattus norvegicus [1]): 76%
inhibition in vivo at 0.1 mg/kg/day (Rattus norvegicus [2]): 40%
ED50 (Rattus norvegicus [3]): ~0.2 mg/kg/day

AUC(0-t) at 24 h [4]: 12700 ng·h/mL
Tmax [5]: 1.5 h
Cmax [6]: 1390 ng/mL
Compound: CC1(C)OC(c2ccc(S(C)(=O)=O)cc2)=C(c2cccc(Cl)c2)C1=O

AUC(0-t) at 24 h [4]: 3610 ng·h/mL
Tmax [5]: 0.5 h
Cmax [6]: 460 ng/mL
Compound: C[S+]([O-])c1ccc(C2=C(c3cccc(Cl)c3)C(=O)C(C)(C)O2)cc1 (stereo not drawn)

Cmax [8]: 130 ng/mL
AUC(0-t) at 24 h [4]: 23100 ng·h/mL
Cmax [9]: 24900 ng/mL
IC50 [10]: 13.2 µM
Tmax [11]: 5 h
Tmax [12]: 4.3 h
Tmax [5]: 2 h
Cmax [13]: 11700 ng/mL
AUC(0-t) at 24 h [14]: 359000 ng·h/mL
Cmax [6]: 2580 ng/mL
IC50 [15]: 0.0529 µM
AUC(0-t) at 24 h [16]: 487000 ng·h/mL
Compound: CC1(C)OC(c2ccc(S(C)(=O)=O)cc2)=C(c2cc(F)cc(F)c2)C1=O
ED50 (Rattus norvegicus [7]): 0.03 mg/kg/day

Compound: COc1ccc2c(c1)c(CC(=O)O)c(C)n2C(=O)c1ccc(Cl)cc1 [INDOMETHACIN]
inhibition in vivo at 0.3 mg/kg/day (Rattus norvegicus [1]): 60%
